# Structures can show the parent of a compound that is named as a salt. Where two headings read alike, the source gives them in different places.
# Columns and labels:
# [1] = target: T1, α1A Human Adrenergic Receptor (Homo sapiens, UniProt P25100); assay: Radioligand binding, [3H]prazosin, cloned human α1A adrenergic receptor
# T1 construct: The entire coding region of α1A (1719 bp); expressed in transfected cells
# T1 sequence (P25100 1-572): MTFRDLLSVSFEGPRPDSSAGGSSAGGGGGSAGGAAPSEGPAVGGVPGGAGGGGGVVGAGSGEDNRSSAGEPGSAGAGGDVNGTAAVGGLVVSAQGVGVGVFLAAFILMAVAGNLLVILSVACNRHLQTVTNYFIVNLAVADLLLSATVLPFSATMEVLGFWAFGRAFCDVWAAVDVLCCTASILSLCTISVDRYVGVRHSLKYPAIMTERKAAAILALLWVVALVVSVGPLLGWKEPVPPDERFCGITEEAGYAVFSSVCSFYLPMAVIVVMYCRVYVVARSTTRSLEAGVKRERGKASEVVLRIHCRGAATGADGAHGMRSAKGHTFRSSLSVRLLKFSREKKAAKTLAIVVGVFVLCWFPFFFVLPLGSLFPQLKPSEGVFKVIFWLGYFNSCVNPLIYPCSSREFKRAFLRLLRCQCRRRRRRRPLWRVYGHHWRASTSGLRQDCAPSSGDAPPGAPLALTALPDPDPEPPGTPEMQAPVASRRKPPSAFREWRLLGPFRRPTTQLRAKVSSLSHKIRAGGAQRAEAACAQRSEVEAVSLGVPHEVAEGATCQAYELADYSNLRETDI
# Description: (§1) The protocols for these experiments are given below.
# (§2) These cell lines were prepared by transfecting the cloned cDNA or cloned genomic DNA or constructs containing both genomic DNA and cDNA encoding the human α-adrenergic receptors as follows:
# α1A Human Adrenergic Receptor:
# The cells were grown, in a controlled environment (37° C., 5% CO2), as monolayers in Dulbecco's modified Eagle's Medium (GIBCO, Grand Island, N.Y.) containing 25 mM glucose and supplemented with 10% bovine calf serum, 100 units/ml penicillin g, and 100 μg/ml streptomycin sulfate.
# (§3) Radioligand Binding Assays:
# (§4) Transfected cells from culture flasks were scraped into 5 ml of 5 mM Tris-HCl, 5 mM EDTA, pH 7.5, and lysed by sonication. The cell lysates were centrifuged at 1000 rpm for 5 min at 4° C., and the supernatant was centrifuged at 30,000× g for 20 min at 4° C. The pellet was suspended in 50 mM Tris-HCl, 1 mM MgCl2, and 0.1% ascorbic acid at pH 7.5. Binding of the α1 antagonist [^3H]prazosin (0.5 nM, specific activity 76.2 Ci/mmol) to membrane preparations of LM(tk−) cells was done in a final volume of 0.25 ml and incubated at 37° C. for 20 min. Nonspecific binding was determined in the presence of 10 μM phentolamine. The reaction was stopped by filtration through GF/B filters using a cell harvester.
# [2] = target: T2, α1C Human Adrenergic Receptor (Homo sapiens, UniProt P35348); assay: Radioligand binding, [3H]prazosin, cloned human α1C adrenergic receptor
# T2 construct: The entire coding region of α1C (1401 bp); expressed in transfected cells
# T2 sequence (P35348 1-466): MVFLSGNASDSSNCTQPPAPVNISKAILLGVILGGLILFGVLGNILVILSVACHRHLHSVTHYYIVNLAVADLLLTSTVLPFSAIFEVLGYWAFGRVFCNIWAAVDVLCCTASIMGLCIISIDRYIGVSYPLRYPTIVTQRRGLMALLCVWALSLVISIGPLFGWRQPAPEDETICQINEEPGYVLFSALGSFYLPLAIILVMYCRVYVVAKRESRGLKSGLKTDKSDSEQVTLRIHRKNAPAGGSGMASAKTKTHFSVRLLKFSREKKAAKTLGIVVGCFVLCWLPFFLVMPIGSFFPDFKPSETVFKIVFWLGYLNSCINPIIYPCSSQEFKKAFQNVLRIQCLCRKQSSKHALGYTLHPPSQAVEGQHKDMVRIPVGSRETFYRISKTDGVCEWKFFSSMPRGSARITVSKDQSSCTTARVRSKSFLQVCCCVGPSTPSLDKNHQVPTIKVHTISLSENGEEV
# Description: as §1, §2
# α1C Human Adrenergic Receptor:
# The construct involved ligating three partial overlapping fragments: a 5′, 0.6 kb HincII genomic clone, a central 1.8 EcoRI hippocampal cDNA clone, and a 3′ 0.6Kb PstI genomic clone. The hippocampal cDNA fragment overlaps with the 5′ and 3′ genomic clones so that the HincII and PstI sites at the 5′ and 3′ ends of the cDNA clone, respectively, were utilized for ligation. This full-length clone was cloned into the KpnI site of the expression vector, using the 5′ and 3′ KpnI sites of the fragment, derived from vector (i.e., pBluescript) and 3′-untranslated sequences, respectively. Stable cell lines were selected as described above.
# as §3, §4
# [3] = target: T3, α1B Human Adrenergic Receptor (Homo sapiens, UniProt P35368); assay: Radioligand binding, [3H]prazosin, cloned human α1B adrenergic receptor
# T3 construct: The entire coding region of α1B (1563 bp); expressed in transfected cells
# T3 sequence (P35368 1-520): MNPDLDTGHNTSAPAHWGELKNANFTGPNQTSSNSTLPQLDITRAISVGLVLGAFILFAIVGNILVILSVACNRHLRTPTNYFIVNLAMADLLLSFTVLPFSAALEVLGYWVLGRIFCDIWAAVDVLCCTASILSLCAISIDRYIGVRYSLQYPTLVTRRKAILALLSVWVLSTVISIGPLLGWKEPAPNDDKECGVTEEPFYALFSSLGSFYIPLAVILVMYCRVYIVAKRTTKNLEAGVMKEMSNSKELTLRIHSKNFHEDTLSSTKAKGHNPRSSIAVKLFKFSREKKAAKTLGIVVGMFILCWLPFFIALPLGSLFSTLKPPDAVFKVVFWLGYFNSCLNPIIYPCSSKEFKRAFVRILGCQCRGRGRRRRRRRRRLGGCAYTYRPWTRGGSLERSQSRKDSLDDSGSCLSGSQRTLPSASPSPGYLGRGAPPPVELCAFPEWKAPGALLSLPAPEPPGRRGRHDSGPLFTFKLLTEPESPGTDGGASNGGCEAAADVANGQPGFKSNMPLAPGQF
# Description: as §1, §2
# α1B Human Adrenergic Receptor:
# The construct involved ligating the full-length containing EcoRI brainstem cDNA fragment from λ ZapII into the expression vector. Stable cell lines were selected as described above.
# as §3, §4
# [4] = [3H]prazosin, cloned human α1A receptor, LM(tk−) cell membranes, read-out: pKi alpha-1 1a (converted)
# [5] = cloned human α1C receptor, LM(tk−) cell membranes, read-out: pKi alpha-1 1c (converted)
# [6] = cloned human α1B receptor, LM(tk−) cell membranes, read-out: pKi alpha-1 1b (converted)
# [7] = [3H]prazosin, cloned human receptor, LM(tk-) cell membranes, mean, read-out: PKi alpha-1 1a (converted)
# [8] = cloned human receptor, LM(tk-) cell membranes, mean, read-out: PKi alpha-1 1c (converted)
# [9] = cloned human receptor, LM(tk-) cell membranes, mean, read-out: PKi alpha-1 1b (converted)
smiles,measurement,setting,value
"COC(=O)C1=C(C)NC(C)=C(C(=O)N(C)CCCN2CCC(c3ccccc3)(c3ccccc3)CC2)C1c1ccc([N+](=O)[O-])cc1 (centres unmarked) (as salt: hydrochloride) (hydrate or solvate) [Example 46, hydrochloride hemihydrate]",melting point,,179 to 180 °C
"COC(=O)C1=C(C)NC(C)=C(C(=O)NCCN2CCC(c3ccccc3)(c3ccccc3)CC2)C1c1ccc([N+](=O)[O-])cc1 (centres unmarked) (as salt: hydrochloride) (hydrate or solvate) [Example 52, 1,4-Dihydro-3-methoxycarbonyl-2,6-dimethyl-4-(4-nitrophenyl)-5-{N-[2-(4,4-diphenylpiperidin-1-yl)ethyl]}carboxamidopyridine hydrochloride hemihydrate]",melting point,,170 to 171 °C
"COC(=O)C1=C(C)N(C)C(C)=C(C(=O)OCCCN2CCC(c3ccccc3)(c3ccccc3)CC2)C1c1ccc([N+](=O)[O-])cc1.Cl.O (centres unmarked) (hydrate or solvate) [Example 92, 1,4-Dihydro-5-methoxycarbonyl-1,2,6-trimethyl-4-(4-nitrophenyl)-3-[3-(4,4-diphenylpiperidin-1-yl)propoxy]carbonylpyridine hydrochloride hydrate]",melting point,,127 to 128 °C
CCC1=C(C(=O)OCCC#N)C(c2ccc([N+](=O)[O-])cc2)C(C(=O)NCCCN2CCC(c3ccccc3)(c3ccccc3)CC2)=C(COC)N1 (centres unmarked) (hydrate or solvate) [Example 135],melting point,,120 to 125 °C
CCC1=C(C(=O)NC)C(c2ccc([N+](=O)[O-])cc2)C(C(=O)NCCCN2CCC(OC)(c3ccccc3)CC2)=C(CC)N1 (centres unmarked) [Example 108],Ki,[1]; [4],2950 nM
same,Ki,[2]; [5],6.92 nM
same,Ki,[3]; [6],4170 nM
"CNC(=O)C1=C(C)NC(C)=C(C(=O)NCCCN2CCC(c3ccccc3)(c3ccccc3)CC2)C1c1ccc([N+](=O)[O-])cc1 (single isomer, unassigned; (-)) [(−)-119, 1,4-dihydro-2,6-dimethyl-5-(N-methyl) carboxamido-4-(4-nitrophenyl)-3-{N-[3-(4,4-diphenylpiperidin-1-yl)propyl]} carboxamidopyridine]",Ki,[1]; pKi alpha-1 1a,1170 nM
same,Ki,[2]; [5],2.57 nM
same,Ki,[3]; [6],676 nM
CC1=C(C(N)=O)C(c2ccc([N+](=O)[O-])cc2)C(C(=O)NCCCN2CCC(C#N)(c3ccccc3)CC2)=C(COCCN)N1 (centres unmarked) [Example 215],Ki,[1]; [7],3390 nM
same,Ki,[2]; [8],3.63 nM
same,Ki,[3]; [9],1260 nM
"COC(=O)C1=C(C)NC(C)=C(C(=O)NCCCN2CCc3ccccc3C2)C1c1ccc([N+](=O)[O-])cc1 (centres unmarked) [Example 59, 1,4-Dihydro-5-{N-[3-(1,2,3,4-tetrahydroisoquinolin-2-yl)propyl]}carboxamido-3-methoxycarbonyl-2,6-dimethyl-4-(4-nitrophenyl)pyridine hydrochloride hydrate]",Ki,"[1]; [3H]prazosin, cloned human receptor in LM(tk-) cell membranes, SEM and n in lines below, read-out: pKi alpha-1 1a (converted)",513 nM
same,Ki,"[2]; cloned human receptor in LM(tk-) cell membranes, SEM and n in lines below, read-out: pKi alpha-1 1c (converted)",245 nM
same,Ki,"[3]; cloned human receptor in LM(tk-) cell membranes, SEM and n in lines below, read-out: pKi alpha-1 1b (converted)",389 nM
"COC(=O)C1=C(C)NC(C)=C(C(=O)NCCCN2CCC(C(=O)OC)(c3ccccc3)CC2)C1c1ccc([N+](=O)[O-])cc1 (centres unmarked) [Example 206, 1,4-Dihydro-2,6-dimethyl-5-methoxycarbonyl-3-{N-[3-(4-methoxycarbonyl-4-phenylpiperidin-1-yl)propyl]}carboxamido-4-(4-nitrophenyl)pyridine]",Ki,[1]; [7],1150 nM
"CNC(=O)C1=C(C)NC(C)=C(C(=O)NCCCN2CCC(c3ccccc3)(c3ccccc3)CC2)C1c1ccc([N+](=O)[O-])cc1 (single isomer, unassigned; (+)) [(+)-119, 1,4-dihydro-2,6-dimethyl-5-(N-methyl) carboxamido-4-(4-nitrophenyl)-3-{N-[3-(4,4-diphenylpiperidin-1-yl)propyl]} carboxamidopyridine]",Ki,[1]; pKi alpha-1 1a,1290 nM
same,Ki,[2]; [5],380 nM
same,Ki,[3]; [6],832 nM
CCC1=C(C(=O)NCCCN2CCC(c3ccccc3)(c3ccccc3)CC2)C(c2ccc([N+](=O)[O-])cc2)C(C(=O)OC(C)(C)C)=C(COCCN)N1 (centres unmarked) [Example 140],Ki,[1]; [4],7240 nM
same,Ki,[2]; [5],7080 nM
same,Ki,[3]; [6],14500 nM
"CCC1=C(C(=O)O)C(c2ccc([N+](=O)[O-])cc2)C(C(=O)NCCCN2CCC(c3ccccc3)(c3ccccc3)CC2)=C(CC)N1 (centres unmarked) [Example 130, 2,6-Diethyl-1,4-dihydro-4-(4-nitrophenyl)-5-{N-[3-(4,4-diphenylpiperidin-1-yl)propyl]}carboxamidopyridine-3-carboxylic acid]",Ki,[1]; [4],912 nM
same,Ki,[2]; [5],10.7 nM
same,Ki,[3]; [6],417 nM
"CC(=O)C1=C(C)NC(COCCCN)=C(C(=O)NCCCN2CCC(c3ccccc3)(c3ccccc3)CC2)C1c1ccc([N+](=O)[O-])cc1 (centres unmarked) [Example 236, 5-Acetyl-2-((3-aminopropyl)oxy)methyl-1,4-dihydro-6-methyl-4-(4-nitro)phenyl-3-(N-(3-(4,4-diphenylpiperidin-1-yl)propyl)) carboxamidopyridine]",Ki,[1]; [7],347 nM
same,Ki,[2]; [8],2.51 nM
same,Ki,[3]; [9],204 nM
"CC1=C(C(=O)OCC[Si](C)(C)C)C(c2ccc([N+](=O)[O-])cc2)C(C(=O)NCCCN2CCC(c3ccccc3)(c3ccccc3)CC2)=C(COCCN=[N+]=[N-])N1 (centres unmarked) [Example 152, 2-((2-Azidoethyl)oxy)methyl-1,4-dihydro-6-methyl-s-(2-trimethylsilylethoxy)carbonyl-4-(4-nitro)phenyl-3-(N-(3-(4,4-diphenylpiperidin-1-yl)propyl))carboxamidopyridine]",Ki,[1]; [4],490 nM
same,Ki,[2]; [5],933 nM
same,Ki,[3]; [6],219 nM

# — US6608086B2, “Dihydropyridines and new uses thereof” (Synaptic Pharmaceutical Corporation, priority 1993, dated 2003)
